“Also recorded” adds a separate entry of the source.
Legend:
[1] = system: bronchial and lung preparations; conditions: in vitro; cited from earlier work
[2] = system: asthma evoked by intravenously administrated histamine; conditions: anesthetized guinea pigs, intravenous histamine; cited from earlier work
[3] = system: OVA evoked asthma in sensitized guinea pigs; experiment: Airway resistance and dynamic pulmonary compliance after inhalation in OVA sensitized guinea pigs; format: in vivo; conditions: for protection against asthma attack by antigen (OVA) challenge: pretreatment by inhalation about three minutes before OVA challenge; for change of Raw and Cdyn at resting state after inhalation: before OVA challenge
Protocol: Sensitization of animals: Ovalbumin (10 μg/ml) was injected into guinea-pigs subcutaneously and coincidentally with an intraperitoneal injection of B. pertussis vaccine. Identical injection of ovalbumin and adjuvant were made day 15 and 21 days later. On day 28th the animals were examined and used for studies.
Test Methods: The sensitized guinea pigs wer anaethetized. A cannula was inserted into the trachea. A plueral cannula was inserted into pleural space through the chest wall. Airway resistance (Raw) and dynamic pulmonary compliance (Cdyn) were measured by using the signals of intraplueral pressure, airflow and tidal volume.
The animals were restreined in closed chamber and nebulized R-bambuterol or S-bambuterol were inhaled at the dose of 126 μg/kg. After three minutes conditioning, the animals were then challenged with nebulized OVA to evoke asthma. Airway resistance (Raw) and dynamic pulmonary compliance (Cdyn) were measured before and after evoking asthma.

[4] = system: histamine evoked asthma in conscious guinea-pigs; experiment: Histamine-evoked asthma in conscious guinea pigs after oral administration; format: in vivo, guinea pigs (Dunkin-Hartley strain); conditions: for Latency: no collapse over 360 sec recorded as 360
Protocol: (§1) Test methods: Guinea pigs (Dunkin-Hartley strain, 200±30 g) were fasted overnight but given water ad libidum. The animals were restrained individually in a glass chamber and exposed to aerosol histamine generated by a nebulizer from a 0.2% aqueous solution of histamine under constant pressure at dose of 0.5 ml/min for a period of 15 sec. The animal was removed from the chamber, and its behavior was monitored. Assign of collapse and the latency time from exposure to collapse were recorded. Only the animals with latency time less than 120 sec, as an indication of sensitive to histamine, were chosen for later experiments. The animals chosen were allowed to recover completely by resting for 24 hours before experiments. R-bambuterol and racemic bambuterol hydrochloride were dissolved in saline and nublized in a nebulizer.
Comparison of the anti-asthma effects of R-bambuterol (R-BM) and bambuterol (RS-BM) administered by oral and by inhalation in conscious guinea pigs. Test methods: same as Example 1.
Study of dose-response: Same as Example 1, except the following: four hours before the exposure to aerosol histamine, animals were randomized into groups (n=8, equal male and female), and given R-bambuterol hydrochloride or racemic bambuterol hydrochloride in doses of 1.0, 2.0, 4.0 and 8.0 mg/kg, and vehicle control, orally via a stomach tube.

[5] = system: histamine evoked asthma in conscious guinea-pigs; experiment: Protection against histamine-evoked asthma by inhaled drug in conscious guinea pigs; format: in vivo, guinea pigs (Dunkin-Hartley strain); conditions: for Latency: no collapse over 360 sec recorded as 360
Protocol: as §1
Study of dose-response: One hours before the exposure to aerosol histamine, animals were randomized into groups (n=8, equal sex), and Nublized R-bambuterol hydrochloride or bambuterol hydrochloride in doses of 63, 126, 252 and 504 μg/kg, and vehicle control were inhaled by the animals via a mouth and nasal mask. The numbers of collapsed animal as a result of asthmatic reaction to aerosol histamine were counted, and the latency times were recorded. Both of these parameters were used as quantitative measurements of the protective effects of the treatments on bronchospasm evoked by aerosol histamine.

[6] = system: histamine evoked asthma in conscious guinea-pigs; experiment: Time course of anti-asthma effects after oral administration or inhalation; format: in vivo; conditions: for No. of collapsed: n=8
Protocol: The time course of the anti-asthma effects of R-bambuterol (R-BM) and bambuterol (RS-BM) after administered by oral and by inhalation. Test Methods: same as example 1 except the following:
For orally administration, R-Bambuterol hydrochloride or racemic bambuterol hydrochloride at 4 and 8 mg/kg, and vehicle alone, were administered to the guinea pigs orally via a stomach tube. Exposure of treated animals to aerosol histamine (as above) was done at 1, 4 and 12 hours after R-bambuterol or bambuterol treatment. For each experimental group, there were a total of 8 animals with equal number in sex, and no repeated exposure was made for individual experimental animals.
For inhalation, R-Bambuterol hydrochloride or racemic bambuterol hydrochloride at 0.252 and 0.504 mg/kg, and vehicle alone, were nebulized and administered to the guinea pigs by inhalation. Exposure of drug treated animals to aerosol histamine (as above) was done at 1,4 and 12 hours after drug treatment. For each experimental group, there were a total of 8 animals with equal number in sex, and no repeated exposure was made for individual experimental animals.

[7] = cited from earlier work
[8] = system: OVA evoked asthma in sensitized guinea-pigs; experiment: Relief of antigen-evoked asthma by inhalation after challenge in OVA sensitized guinea-pigs; format: in vivo; conditions: nebulized drug inhaled after antigen challenge
From the text: In an embodiment of the invention, the ovalbumin (OVA) sensitized guinea-pigs were first challenged with nebulized antigen to evoke asthma, then the animals were allowed to inhale nebulized R-bambuterol or bambuterol. […] In a further embodiment of the invention, the sensitized guinea-pigs were first pretreated with nebulized R-bambuterol or bambuterol by inhalation. After three minutes, the same animals were challenged with nebulized antigen. […] The fast onset of action in the invention can also not be explained by Svenssion's in vitro metabolic study noted above that the dominate product is mono-carbamate bambuterol and litter terbutaline at initial phase., while the major amount of terbutaline will be formed at much later phase. (Svensson et al., 1988).

[9] = system: OVA evoked asthma in sensitized guinea pigs; experiment: Airway resistance in OVA asthma attack after oral administration in sensitized guinea pigs; format: in vivo
Protocol: Sensitized animals were divided into Saline (control), S-Bambuterol and R-bambuterol groups. R or S bambuterol were administered by both inhalation by oral ([…]). Airway resistance (Raw) and dynamic pulmonary compliance (Cdyn) were measured at resting or during astham challenge by OVA. Animal preparation and experimental methods were similar as described previously.

[10] = system: OVA evoked asthma in sensitized guinea pigs; experiment: Drug tolerance to R-bambuterol induced by pretreatment; format: in vivo
Protocol: Animal sensitization and experiment methods were similar as discribed above. Briefly, animals were divided into three groups. R-bambuterol (8 mg/kg) or S-bamburerol (8 mg/kg) or 0.9% NaCL (control) were given orally in equal volum to each group seperatedly once a day for 7 consecutive days in order to induce drug tolerances. The Protection effects of same dosage of R-bambuterol against asthma attack induced by OVA challenge were evaluated by the changes of Airway resistance (Raw) and dynamic pulmonary compliance (Cdyn).

[11] = oral, at maximum effective dose (R-BM 4.0, RS-BM 8.0 mg/Kg)
[12] = inhale, at maximum effective dose (R-BM 0.252, RS-BM 0.505 mg/Kg)
[13] = inhalation (R-BM 252 μg/kg, RS-BM 504 μg/kg), histamine 60 min after
[14] = inhalation (R-BM 252 μg/kg, RS-BM 504 μg/kg), histamine 240 min after
[15] = inhalation (R-BM 252 μg/kg, RS-BM 504 μg/kg), histamine 720 min after
[16] = oral (R-BM 4.0 mg/kg, RS-BM 8.0 mg/kg), histamine 60 min after
[17] = oral (R-BM 4.0 mg/kg, RS-BM 8.0 mg/kg), histamine 240 min after
[18] = oral (R-BM 4.0 mg/kg, RS-BM 8.0 mg/kg), histamine 720 min after
[19] = pretreated with the labelled substance 8 mg/kg orally once a day 7 days, then R-bambuterol, OVA challenge, n=8

CN(C)C(=O)Oc1cc(OC(=O)N(C)C)cc(C(O)CNC(C)(C)C)c1 (racemic) [bambuterol]
relaxation effects [1]: no relaxation effects
bronchospasmolytic effects when inhaled [2]: inactive and lack bronchospasmolytic effects
protection against asthma attack by antigen (OVA) challenge [3]: significant anti-asthma effects
maximum effective dose required by oral (none of the histamine challenged animals collapsed) ([4]; oral): 8 mg/kg
Latency ([4]; oral 1.0 mg/Kg): 151 ± 130 s
Latency ([4]; oral 2.0 mg/Kg): 227 ± 143 s
Latency ([4]; oral 4.0 mg/Kg): 299 ± 113 s
Latency ([4]; oral 8.0 mg/Kg): 360 ± 0 s
Animal collapsed (%) [4, 11]: 0%
Animal collapsed (number/group) [4, 11]: 0/8
maximum effective dose required by oral (none of the histamine challenged animals collapsed) ([4]; oral, listed as RS-BM): Oral (8.0 ) mg/Kg
dosage required for maximum anti-asthmatic effects (complete protection against histamine) by inhalation ([5]; inhalation): 512 µg/kg
maximum effective dose required by inhalation ([5]; inhale): Inhale (0.505) mg/Kg
Animal collapsed (%) [5, 12]: 0%
Animal collapsed (number/group) [5, 12]: 0/8
Latency ([5]; inhaled 63 μg/Kg): 42 ± 9 s
Latency ([5]; inhaled 126 μg/Kg): 85 ± 112 s
Latency ([5]; inhaled 252 μg/Kg): 209 ± 162 s
Latency ([5]; inhaled 504 μg/Kg): 360 ± 0 s
Oral:Inhale ratio of maximum effective dose ([5]; oral dose vs inhaled dose for maximum anti-asthmatic effect): 16
Latency [6, 13]: 360 ± 0 s
No. of collapsed [6, 13]: 0/8
Latency [6, 14]: 360 ± 0 s
No. of collapsed [6, 14]: 0/8
Latency [6, 15]: 287 ± 136 s
No. of collapsed [6, 15]: 2/8
maximum anti-asthmatic effects by inhalation faster than by oral administration ([6]; inhalation vs oral): 4 h
Latency [6, 16]: 260 ± 131 s
No. of collapsed [6, 16]: 3/8
Latency [6, 17]: 360 ± 0 s
No. of collapsed [6, 17]: 0/8
Latency [6, 18]: 360 ± 0 s
No. of collapsed [6, 18]: 0/8
duration of blood concentration of active parent drug ([7]; after an oral administration): up to 24 hours
concentration in lungs relative to plasma ([7]; after oral administration (Svensson 1991)): ~20 times
amount needed relative to terbutaline to reach the same concentration of terbutaline in blood ([7]; given orally, on molar basis): 5 times
tmax of terbutaline released from bambuterol later than tmax of terbutaline taken orally ([7]; oral (Olsson et al. 1984)): four
time of maximum concentration (tmax) ([7]; oral): around one
relief of asthmatic symptoms after inhalation [8]: immediately relieved within matter of tenths of seconds to a couple of minutes

CN(C)C(=O)Oc1cc(OC(=O)N(C)C)cc([C@H](O)CNC(C)(C)C)c1 [S-bambuterol]
change of Raw and Cdyn in resting state ([9]; given orally): little changes in either Raw and Cdyn
change in Raw / asthmatic response during the asthmatic attack by OVA ([9]; oral): significantly enhance the asthmatic response to OVA challenge than control; also recorded: significant increases in Raw; also recorded: significantly worsen the asthmatic response
Changes in Airway resistance (Raw) at 4th min after OVA challenge ([9]; pretreated oral 4 m/kg, n=8): 2.40 ± 0.96
Changes in Airway resistance (Raw) at 5th min after OVA challenge ([9]; pretreated oral 4 m/kg, n=8): 2.41 ± 0.98
change of Raw and Cdyn at resting state after inhalation [3]: increasing airway resistance and reducing pulmonary dynamic compliance; also recorded: significant increase in airway resistance (Raw) and decrease in pulmonary compliance (Cdyn)
change of Raw and Cdyn at resting state after inhalation ([3]; listed as S-Bambuterol): significant increase in Raw and decrease in Cdyn
collapse induced by inhalation per se ([3]; inhalation, sensitized guinea pigs): induced a collapes of a guinea pig
protection against asthma attack by antigen (OVA) challenge [3]: no such protection at all; also recorded: inactive in protectoin against asthma attack
change of Raw and Cdyn during the asthma attack comparing to control ([3]; treated by inhalation): greater increase in airway resistance (Raw) and decrease in pulmonary compliance (Cdyn)
protection effects of R-bambuterol against asthmatic attack after pretreatment ([10]; group pretreated with the labelled substance): significantly reduced
Changes in Cdyn During asthma [10, 19]: −0.25 ± 0.10
Changes in Raw During asthma [10, 19]: +0.36 ± 0.23
